Assay results from ChEMBL document CHEMBL5370604, “Identification of Micrococcin P2-Derivatives as Antibiotic Candidates against Two Gram-Positive Pathogens” (J Med Chem, 2023).
Converted amounts (≈) assume the structure as drawn. The source made the active and inactive calls. The rule behind the calls is not given here.

How the values were obtained:
[1] = Aqueous kinetic solubility of the compound at pH 7.4 incubated for 2 hrs by UPLC-MS analysis; assay type: physicochemical; conditions: read-out: Kinetic_solubility
Staphylococcus aureus [2] = experiment: Antibacterial activity against Staphylococcus aureus ATCC 4330 assessed as inhibition of bacterial growth measured after 16 to 24 hrs by CLSI based broth dilution method; assay type: functional; conditions: time 16-24 hrs
Clostridioides difficile [3] = experiment: Antibacterial activity against Clostridioides difficile ATCC 43255 assessed as inhibition of bacterial growth measured after 24 hrs by CLSI based broth dilution method; assay type: functional
Staphylococcus aureus [4] = experiment: Antibacterial activity against methicillin-resistant Staphylococcus aureus assessed as inhibition of bacterial growth measured after 16 to 24 hrs by CLSI based broth dilution method; assay type: functional; conditions: time 16-24 hrs
Clostridioides difficile [5] = experiment: Antibacterial activity against Clostridioides difficile RT130/ST5/A+B+CDT+ assessed as inhibition of bacterial growth measured after 24 hrs by CLSI based broth dilution method; assay type: functional
[6] = (§1) Toxicity in colitis-induced C57BL/6J mouse infected with Clostridioides difficile ribotype 027 assessed as increase in Klebsiella proportion in gut at 30 mg/kg, po qd pretreated with clindamycin followed by infected with […] and measured on day 20 post treatment by RNA sequencing analysis (reference value: 0%); assay type: organism-based; conditions: in vivo, 480 h, time 20 day
Clostridioides difficile [7] = experiment: Antibacterial activity against Clostridioides difficile RT078/ST11/A+B+CDT+ assessed as inhibition of bacterial growth measured after 24 hrs by CLSI based broth dilution method; assay type: functional
[8] = as §1, with “6” for “20”; assay type: organism-based; conditions: in vivo, 144 h, time 6 day
Clostridioides difficile [9] = experiment: Antibacterial activity against Clostridioides difficile ribotype 027 infected in colitis induced C57BL/6J mouse assessed as increase in survival rate without recurrence at 30 mg/kg, po qd pretreated with clindamycin followed by […] infection and compound addition measured on day 15 to day 19; assay type: functional, organism-based; conditions: time 15-19 day
[10] = as §1, with “Enterococcus” for “Klebsiella”; assay type: organism-based; conditions: in vivo, 480 h, time 20 day
[11] = as §1, with “Escherichia” for “Klebsiella”; assay type: organism-based; conditions: in vivo, 480 h, time 20 day
Clostridioides difficile [12] = experiment: Antibacterial activity against Clostridioides difficile RT293/ST129/A+B+ assessed as inhibition of bacterial growth measured after 24 hrs by CLSI based broth dilution method; assay type: functional
Clostridioides difficile [13] = experiment: Antibacterial activity against Clostridioides difficile RT027/ST1/A+B+CDT+ assessed as inhibition of bacterial growth measured after 24 hrs by CLSI based broth dilution method; assay type: functional
Clostridioides difficile [14] = experiment: Antibacterial activity against Clostridioides difficile ribotype 027 infected in colitis induced C57BL/6J mouse assessed as survival rate at 30 mg/kg, po qd pretreated with clindamycin followed by […] infection and compound addition measured on day 5; assay type: functional; conditions: ribotype 027, 120 h, time 5 day
Clostridioides difficile [15] = experiment: Antibacterial activity against Clostridioides difficile RT017/ST37/A-B+ assessed as inhibition of bacterial growth measured after 24 hrs by CLSI based broth dilution method; assay type: functional
Clostridioides difficile [16] = experiment: Antibacterial activity against Clostridioides difficile ribotype 027 infected in colitis induced C57BL/6J mouse assessed as increase in survival rate without recurrence at 30 mg/kg, po qd pretreated with clindamycin followed by […] infection and compound addition measured on day 5; assay type: functional; conditions: time 5 day
[17] = as §1, with “Enterococcus” for “Klebsiella”, “6” for “20”; assay type: organism-based; conditions: in vivo, 144 h, time 6 day
Clostridioides difficile [18] = experiment: Antibacterial activity against Clostridioides difficile RT002/ST8/A+B+ assessed as inhibition of bacterial growth measured after 24 hrs by CLSI based broth dilution method; assay type: functional
Clostridioides difficile [19] = experiment: Antibacterial activity against Clostridioides difficile RT015/ST35/A+B+ assessed as inhibition of bacterial growth measured after 24 hrs by CLSI based broth dilution method; assay type: functional
[20] = as §1, with “Escherichia” for “Klebsiella”, “6” for “20”; assay type: organism-based; conditions: in vivo, 144 h, time 6 day
Clostridioides difficile [21] = experiment: Antibacterial activity against Clostridioides difficile RT014/ST14/A+B+ assessed as inhibition of bacterial growth measured after 24 hrs by CLSI based broth dilution method; assay type: functional
Clostridioides difficile [22] = experiment: Antibacterial activity against Clostridioides difficile RT012/ST54/A+B+ assessed as inhibition of bacterial growth measured after 24 hrs by CLSI based broth dilution method; assay type: functional
Clostridioides difficile [23] = experiment: Antibacterial activity against Clostridioides difficile NT/ST67/A+B+CDT+ assessed as inhibition of bacterial growth measured after 24 hrs by CLSI based broth dilution method; assay type: functional
Clostridioides difficile [24] = experiment: Antibacterial activity against Clostridioides difficile NT/ST221/A+B+CDT+ assessed as inhibition of bacterial growth measured after 24 hrs by CLSI based broth dilution method; assay type: functional
Clostridioides difficile [25] = experiment: Antibacterial activity against Clostridioides difficile RT001/ST3/A+B+ assessed as inhibition of bacterial growth measured after 24 hrs by CLSI based broth dilution method; assay type: functional
Clostridioides difficile [26] = experiment: Antibacterial activity against Clostridioides difficile RT018/ST17/A+B+ assessed as inhibition of bacterial growth measured after 24 hrs by CLSI based broth dilution method; assay type: functional

C/C=C1\NC(=O)[C@H]([C@@H](C)O)NC(=O)c2csc(n2)-c2ccc(-c3nc(-c4nc(C(=O)NC5(C(=O)NCCCN6CCN(C(C)C)CC6)CC5)cs4)cs3)nc2-c2csc(n2)[C@H]([C@@H](C)O)NC(=O)c2csc(n2)[C@H](C(C)C)NC(=O)c2csc1n2
solubility kinetic at 2 h [1]: 120 µg/mL (≈ 95.6 µM) | MIC (Staphylococcus aureus [2]): 1 µg/mL (≈ 0.797 µM) | MIC (Clostridioides difficile [3]): 1 µg/mL (≈ 0.797 µM)

C/C=C1\NC(=O)[C@H]([C@@H](C)O)NC(=O)c2csc(n2)-c2ccc(-c3nc(-c4nc(C(=O)NC5(C(=O)NCCCN6CCOCC6)CC5)cs4)cs3)nc2-c2csc(n2)[C@H]([C@@H](C)O)NC(=O)c2csc(n2)[C@H](C(C)C)NC(=O)c2csc1n2
MIC (Staphylococcus aureus [2]): 1 µg/mL (≈ 0.824 µM) | MIC (Clostridioides difficile [3]): 1 µg/mL (≈ 0.824 µM)

C/C=C(\NC(=O)c1csc(-c2csc(-c3ccc4c(n3)-c3csc(n3)[C@H]([C@@H](C)O)NC(=O)c3csc(n3)[C@H](C(C)C)NC(=O)c3csc(n3)/C(=C/C)NC(=O)[C@H]([C@@H](C)O)NC(=O)c3csc-4n3)n2)n1)C(=O)NCCN1CCOCC1
MIC (Staphylococcus aureus [2]): 1 µg/mL (≈ 0.834 µM) | MIC (Clostridioides difficile [3]): 1 µg/mL (≈ 0.834 µM)

C/C=C1\NC(=O)[C@H]([C@@H](C)O)NC(=O)c2csc(n2)-c2ccc(-c3nc(-c4nc(C(=O)NC5(C(=O)NCCN6C(=O)CNC6=O)CC5)cs4)cs3)nc2-c2csc(n2)[C@H]([C@@H](C)O)NC(=O)c2csc(n2)[C@H](C(C)C)NC(=O)c2csc1n2
MIC (Staphylococcus aureus [2]): 1 µg/mL (≈ 0.825 µM) | MIC (Clostridioides difficile [3]): > 16 µg/mL

C/C=C1\NC(=O)[C@H]([C@@H](C)O)NC(=O)c2csc(n2)-c2ccc(-c3nc(-c4nc(C(=O)NC5(C(=O)NCCn6cc([N+](=O)[O-])nc6C)CC5)cs4)cs3)nc2-c2csc(n2)[C@H]([C@@H](C)O)NC(=O)c2csc(n2)[C@H](C(C)C)NC(=O)c2csc1n2
MIC (Staphylococcus aureus [2]): 1 µg/mL (≈ 0.807 µM) | MIC (Clostridioides difficile [3]): 0.5 µg/mL (≈ 0.403 µM)

C/C(=C\C(=O)OCCCCCCCCC(=O)O)C[C@@H]1OC[C@H](C[C@@H]2O[C@H]2[C@@H](C)[C@H](C)O)[C@@H](O)[C@H]1O [MUPIROCIN]
MIC50 (Staphylococcus aureus [4]): > 8 µg/mL

CN[C@H](CC(C)C)C(=O)N[C@H]1C(=O)N[C@@H](CC(N)=O)C(=O)N[C@H]2C(=O)N[C@H]3C(=O)N[C@H](C(=O)N[C@H](C(=O)O)c4cc(O)cc(O)c4-c4cc3ccc4O)[C@H](O)c3ccc(c(Cl)c3)Oc3cc2cc(c3O[C@@H]2O[C@H](CO)[C@@H](O)[C@H](O)[C@H]2O[C@H]2C[C@](C)(N)[C@H](O)[C@H](C)O2)Oc2ccc(cc2Cl)[C@H]1O [VANCOMYCIN]
MIC (Clostridioides difficile [5]): 1 µg/mL (≈ 0.69 µM) | Activity [6]: 1.39% | MIC (Clostridioides difficile [7]): 1 µg/mL (≈ 0.69 µM) | Activity [8]: 8.78% | Activity (Clostridioides difficile [9]): inactive | Activity [10]: 21.53% | Activity [11]: 5.22% | MIC (Clostridioides difficile [12]): 1 µg/mL (≈ 0.69 µM) | MIC (Clostridioides difficile [13]): 1 µg/mL (≈ 0.69 µM) | survival at 30 mg/kg (Clostridioides difficile [14]): 40% | MIC (Clostridioides difficile [15]): 0.5 µg/mL (≈ 0.345 µM) | MIC (Clostridioides difficile [3]): 1 µg/mL (≈ 0.69 µM) | Activity (Clostridioides difficile [16]): 30% | Activity [17]: 0% | MIC (Clostridioides difficile [18]): 1 µg/mL (≈ 0.69 µM) | MIC (Clostridioides difficile [19]): 0.5 µg/mL (≈ 0.345 µM) | Activity [20]: 24.55% | MIC (Clostridioides difficile [21]): 1 µg/mL (≈ 0.69 µM) | MIC (Clostridioides difficile [22]): 1 µg/mL (≈ 0.69 µM) | MIC (Clostridioides difficile [23]): 2 µg/mL (≈ 1.38 µM) | MIC (Clostridioides difficile [24]): 2 µg/mL (≈ 1.38 µM) | MIC (Clostridioides difficile [25]): 1 µg/mL (≈ 0.69 µM) | MIC (Clostridioides difficile [26]): 1 µg/mL (≈ 0.69 µM)

C/C=C(\NC(=O)c1csc(-c2csc(-c3ccc4c(n3)-c3csc(n3)[C@H]([C@@H](C)O)NC(=O)c3csc(n3)[C@H](C(C)C)NC(=O)c3csc(n3)/C(=C/C)NC(=O)[C@H]([C@@H](C)O)NC(=O)c3csc-4n3)n2)n1)C(=O)NCCN1CCN(C(C)C)CC1.Cl
solubility kinetic at 2 h [1]: 3 µg/mL

C/C=C1\NC(=O)[C@H]([C@@H](C)O)NC(=O)c2csc(n2)-c2ccc(-c3nc(-c4nc(C(=O)NC5(C(=O)NCCn6ccnc6[N+](=O)[O-])CC5)cs4)cs3)nc2-c2csc(n2)[C@H]([C@@H](C)O)NC(=O)c2csc(n2)[C@H](C(C)C)NC(=O)c2csc1n2
MIC (Staphylococcus aureus [2]): 1 µg/mL (≈ 0.816 µM) | MIC (Clostridioides difficile [3]): 0.5 µg/mL (≈ 0.408 µM)
